# Entries after “also recorded” stand apart in the source; their conditions may differ. Where a SMILES comes first, the peptide text is derived from it. The star is where a group is joined. AMC = Cc1cc(=O)oc2cc(N*)ccc12
# How the values were obtained:
# PARL = target: T1, PARL (Homo sapiens, UniProt Q9H300); test: In vitro assay for PARL activity, cleavage of AMC substrates by liposome-embedded PARL; type: biochemical; design: hexahistidine tag (C); made in house; host or cells: continuous-exchange cell-free expression in bacterial lysates with T7 polymerase (CUBE biotech), into liposomes; details: mature PARL in liposomes, S277A catalytic mutant as control
# T1 sequence (Q9H300 53-379): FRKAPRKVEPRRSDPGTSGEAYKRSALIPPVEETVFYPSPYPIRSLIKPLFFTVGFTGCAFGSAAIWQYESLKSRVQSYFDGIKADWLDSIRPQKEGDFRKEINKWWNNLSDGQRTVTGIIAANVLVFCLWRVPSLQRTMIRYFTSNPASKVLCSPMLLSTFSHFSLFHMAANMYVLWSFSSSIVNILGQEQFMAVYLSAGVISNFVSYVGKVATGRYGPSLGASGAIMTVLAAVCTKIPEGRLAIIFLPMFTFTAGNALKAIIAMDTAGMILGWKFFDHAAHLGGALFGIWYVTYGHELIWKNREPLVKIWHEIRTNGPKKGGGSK
# Description: Liposome preparation and cell-free protein expression of PARL were carried out essentially as described previously.[27] Liposomes resembling the lipid composition of the IMM were prepared by mixing 40% DOPC (1,2-dioleoyl-sn-glycero-3-phosphocholine), 33.8% DOPE (1,2-dioleoyl-sn-glycero-3-phosphoethanolamine), 18% CL(18:1)4 (1′,3′-bis[1,2-dioleyl-sn-glycero-3-phospho]-glycerol), 3% DOPS (1,2-dioleoyl-sn-glycero-3-phospho-L-serine), 5% soy-PI (L-α-phosphatidylinositol), and 0.2% rhodamine-PE (1,2-dioleoyl-sn-glycero-3-phosphoethanolamine-N-(lissamine rhodamine B sulfonyl)) in chloroform, followed by the evaporation of chloroform by a stream of nitrogen gas and drying in a vacuum chamber (Binder) for 1 h. […] Concentration of PARL was determined by absorption at 280 nm.
# The PARL activity assay in vitro was carried out in 5 mM Tris, 5 mM Mg(OAc)2, 25 μM Zn(OAc)2, 0.1 μg/μL BSA, 30% DMSO, pH 8.0 using PARL in liposomes at 0.05 mg/mL. Compound 3 and 4 were used at 5 μM final concentration based on quantitative amino acid analysis. […] The cleavage reaction was carried out at 37 °C in 96-well black HTS plates (Greiner Bio-One) in a plate reader (Tecan Infinite M1000) with excitation and emission wavelengths set to 355 and 450 nm, respectively. Data were evaluated using Excel (Microsoft) and GraphPad Prism 9 (GraphPad Software, Inc.).
# GlpG [1] = target: T2, GlpG (Escherichia coli, UniProt P09391); test: Inhibition assay of GlpG with fluorogenic substrate compound 1; type: biochemical, E. coli; details: detergent-solubilized GlpG 100 nM, substrate compound 1, 1 h preincubation at 37 °C, mean ± SEM of three measurements
# T2 construct: Full-length GlpG with C-terminal His-tag was overexpressed from pET25b + in E. coli C43(DE3); His-tag (C); made in house; host or cells: E. coli C43(DE3)
# Description: (§1) Activity and inhibition assays of GlpG shown in Figure 1B–D were carried out in 50 mM potassium phosphate pH 7.4, 150 mM NaCl, 20% (v/v) glycerol, 0.05% (w/v) PEG8000, 0.05% (w/v) DDM, and 5% (v/v) DMSO. […] All activity measurements were performed at 37 °C in 96-well black HTS plates (Greiner Bio-One) and fluorescence was monitored in a plate reader (Tecan Infinite M1000) with excitation and emission wavelengths set to 355 and 450 nm, respectively, for compound 1, and 335 and 493 nm, respectively, for the transmembrane substrate KSp96. Data were evaluated using Excel (Microsoft) and GraphPad Prism 9 (GraphPad Software, Inc.).
# GlpG [2] = target: T2, GlpG; type: biochemical, E. coli
# Description: Emission spectra of aminomethyl coumarin and cleavage of compound 1 were monitored in 50 mM potassium phosphate pH 7.4, 150 mM NaCl, 20% (w/v) glycerol, 0.05% (w/v) PEG8000, 0.05% (w/v) DDM, 10% (w/v) DMSO. The compounds (1 mM) were incubated with 10 μM GlpG WT or S201T, 1 μM elastase, or buffer, respectively, as indicated in the legend of Figure 1A at 37 °C for 1 h. Samples were diluted 8-fold with buffer, and emission spectra were measured in 96-well black HTS plates (Greiner Bio-One) by a plate reader (Tecan Infinite M1000) using an excitation wavelength of 355 nm. Data were evaluated using Excel (Microsoft) and GraphPad Prism 9 (GraphPad Software, Inc.). The data shown are representative of three independent experiments.
# as §1
# Activity measurements of GlpG with varying DDM concentrations were obtained in 20 mM HEPES (pH 7.4), 150 mM NaCl using 100 nM GlpG, and DDM at the concentration indicated in the graphs. Buffer for measurements with compound 1 contained additionally 5% (v/v) DMSO. Compound 1 and transmembrane substrate were used at 10 μM final concentration. Activity measurements were performed at 37 °C in 96-well black HTS plates (Greiner Bio-One), and fluorescence was monitored in a plate reader (Tecan Infinite M1000) with excitation and emission wavelengths set to 355 and 450 nm for compound 1 and 335 and 493 nm for the transmembrane substrate, respectively. Data were evaluated using Excel (Microsoft) and GraphPad Prism 9 (GraphPad Software, Inc.).
# [3] = Solubility of fluorogenic substrates in assay buffer (qualitative)
# HEK293T cells = test: JC-1 mitochondrial membrane potential assay; type: cell-based, human; details: 5 µM compound 5 or CCCP, at least three hours, compared to DMSO
# Description: Staining of cells for the determination of mitochondrial membrane potential was carried out with the JC-1 mitochondrial staining kit (Sigma-Aldrich) according to the kit’s instructions; stained cells were immediately taken to live cell imaging.
# (§2) For fixation, cells were incubated for 15 min with 4% formaldehyde (16% formaldehyde diluted in PBS, Thermo Scientific) and washed in PBS. The cover glasses were mounted with Fluoromount-G (Southern Biotech) on microscope slides. All microscopy was performed on an LSM 780 system (Carl Zeiss) with a Plan-APOCHROMAT 63× 1.4NA oil objective (Carl Zeiss) and pinhole settings of 1 AU with the Zeiss ZEN 2010 software. Image processing and analysis was performed using ImageJ (http://rsb.info.nih.gov/ij/). […] Parkin recruitment events to the mitochondria were counted by hand throughout each z-stack and cell. […] JC-1 images were handled as summed intensity z-stack projections, as well as subjected to flatfield correction and subtraction of background before measuring the fluorescence levels normalized to the number of cell nuclei. The fluorescence intensity ratio between the red and green signal was calculated and compared to DMSO as a ratio of 1. Data were evaluated using Excel and GraphPad Prism 6.
# Parkin [4] = test: Parkin recruitment to mitochondria, subcellular fractionation and immunoblot; type: cell-based, human; details: HEK293 T-REx PINK1 cells, HA-Parkin-IRES-GFP; 5 μM compound 5, CCCP 10 μM or Antimycin A 30 μM
# Description: (§3) Inducible stable Flp-In HEK293 T-REx cells expressing PINK1 were described previously.[33] HEK293 T-REx PINK1 and HEK293T cells were grown in DMEM (Gibco) supplemented with 10% (v/v) fetal bovine serum (ThermoFisher), 1% (v/v) GlutaMAX (Gibco), 1% (v/v) sodium pyruvate (Gibco), 125 μg/mL hygromycin (Invitrogen), and 10 μg/mL blasticidin (Gibco) or DMEM supplemented with 10% (v/v) fetal bovine serum, respectively, at 37 °C in 5% (v/v) CO2. For microscopy, cells were seeded on poly-L-lysine (Sigma)-coated slides. Transient plasmid transfections were performed using 25 kDa linear polyethylenimine (Polysciences). Plasmid (100 ng) encoding HA-Parkin-IRES-GFP, mito-mCherry or Parkin-mEGFP, or 500 ng plasmid encoding PGAM5-FLAG were used per 6-well. Total transfected DNA was 2 μg/well. For siRNA transfection, 2 × 10^5 cells were seeded per 6-well and on the next day transfected with 20 nM siRNA-oligonucleotide using lipofectamine RNAiMAX (ThermoFisher). Cells were analyzed 27 h post-transfection or five days post-siRNA-transfection. HEK293 T-REx PINK1 cells were induced with 0.3 μg/mL doxycycline for 24 h before further processing. Hoechst staining (1 μg/mL) was done immediately before adding treatment to the cells. Treatments were administered for the indicated times before processing; CCCP (Sigma) was always used as 10 μM for 3 h and Antimycin A (Sigma) as 30 μM for 3 h.
# Unless mentioned otherwise, all steps were performed at 4 °C. For subcellular fractionation to separate cellular content into cytosolic and mitochondrial fractions, cells were washed with PBS, harvested in PBS-EDTA (1 mM EDTA, 0.2 g/L D-glucose), and centrifuged at 500 × g for 5 min. […]
# For immunoblot analysis in other cases, cells were either processed as described above or washed with PBS and directly lysed with Tris-glycine SDS-PAGE sample buffer and heated for 15 min at 65 °C. […] For quantification, ImageJ was used (http://rsb.info.nih.gov/ij/). […]
# Parkin [5] = test: Parkin recruitment to mitochondria and mitochondrial morphology, fluorescence microscopy; type: cell-based, human; details: HEK293 T-REx PINK1 cells, 3 h
# Description: as §3
# as §2, with “slides.” for “slides. All microscopy was performed on an LSM 780 system (Carl Zeiss) with a Plan-APOCHROMAT 63× 1.4NA oil objective (Carl Zeiss) and pinhole settings of 1 AU with the Zeiss ZEN 2010 software. Image processing and analysis was performed using ImageJ (http://rsb.info.nih.gov/ij/).”
# T2 sequence (P09391 whole entry): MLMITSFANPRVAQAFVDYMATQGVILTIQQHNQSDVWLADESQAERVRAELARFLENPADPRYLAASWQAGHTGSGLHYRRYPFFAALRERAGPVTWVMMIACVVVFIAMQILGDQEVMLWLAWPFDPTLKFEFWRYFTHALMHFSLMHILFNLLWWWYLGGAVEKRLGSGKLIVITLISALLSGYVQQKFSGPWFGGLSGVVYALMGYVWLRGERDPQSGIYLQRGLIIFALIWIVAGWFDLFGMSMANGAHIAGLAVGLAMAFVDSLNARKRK
smiles,measurement,setting,value
"CC(=O)N[C@@H](C)C(=O)N[C@H](C(=O)N[C@@H](Cc1ccccc1)C(=O)N[C@@H](CC(C)C)C(=O)N[C@@H](C)C(=O)Nc1ccc2c(C)cc(=O)oc2c1)C(C)C [compound 3, AcAVFLA-4mc] (Ac-AVFLA-{AMC})",Cleavage of substrate by liposome-embedded PARL,PARL,are cleaved by liposome-embedded PARL but not its catalytic mutant
CC(=O)N[C@H](C(=O)N[C@@H](CCCNC(=N)N)C(=O)N[C@@H](Cc1c[nH]cn1)C(=O)N[C@@H](C)C(=O)C(=O)NCCCCc1ccccc1)C(C)C [compound 2],IC50,GlpG [1],0.132 ± 0.023 µM
"CC(=O)N[C@@H](CCCNC(=N)N)C(=O)N[C@H](C(=O)N[C@@H](CCCNC(=N)N)C(=O)N[C@@H](Cc1c[nH]cn1)C(=O)N[C@@H](C)C(=O)Nc1ccc2c(C)cc(=O)oc2c1)C(C)C [compound 1, AcRVRHA-4mc] (Ac-RVRHA-{AMC})",Apparent Michaelis constant for substrate,GlpG [2]; GlpG in DDM micelle environment,approximately 500 μM
same,Michaelis constant KM for substrate,"GlpG [2]; GlpG, detergent",about half
same,Cleavage of substrate by GlpG,GlpG [2]; detergent micelles and/or DIBMA lipid nanodiscs,cleaved by GlpG with similar efficiency in lipid nanodiscs and in detergent micelles; also recorded: can be cleaved by active GlpG embedded in polymer nanodiscs
same,Solubility of substrate,[3],sufficiently soluble to be useable at hundreds of micromolar concentrations
"N#CC(C#N)=NNc1cccc(Cl)c1 [CCCP, carbonyl cyanide m-chlorophenyl hydrazone]",Effect on mitochondrial membrane potential (JC-1 aggregate to monomer ratio),HEK293T cells,lowers the membrane potential
same,Parkin recruitment to the mitochondrial fraction,Parkin [4],significant recruitment of Parkin to the mitochondrial fraction
same,Mitochondrial morphology,Parkin [5],severe rounding and clustering

# Reference: PMC9841525, “Chemical Blockage of the Mitochondrial Rhomboid Protease PARL by Novel Ketoamide Inhibitors Reveals Its Role in PINK1/Parkin-Dependent Mitophagy” (Journal of Medicinal Chemistry, 2022)
